Data: patent publication US10350202B2, “Composition and method for treating skin conditions” (442 Ventures, LLC, priority 2010, dated 2019)

System: warts
Experiment: In vivo treatment of warts
Parameters: species or system human
Conditions: topical application to warts
Method: A composition including an imidazoquinoline compound; and a retinoid agent was tested in vivo. Imiquimod (5% (wt/wt)) and tazarotene (0.1% (wt/wt) were combined in a 1:1 ratio. The resulting composition was topically applied to individual warts in approximately 30 patients. The patients had various types of warts (thick and thin) in varying locations including palms, soles, hands, legs, feet, trunk, and extremities (including periungual). The composition could be used occluded or non-occluded, at the patient's option.

Structure (SMILES) | treatment result on warts (in words)
CC(C)Cn1cnc2c(N)nc3ccccc3c21 [imiquimod, 1-(2-methylpropyl)-1H-imidpzo[4,5-c]quinolin-4-amine] | not as efficacious
CCOC(=O)c1ccc(C#Cc2ccc3c(c2)C(C)(C)CCS3)nc1 [tazarotene] | not as efficacious
